From US12565515B2, “1,2,4-oxadiazole compounds as inhibitors of CD47 signalling pathways” (AURIGENE ONCOLOGY LIMITED, priority 2018, dated 2026)

How the values were obtained:
A20 syngeneic lymphoma = assay: Efficacy in A20 syngeneic lymphoma model; assay type: in vivo; conditions: for TGI (%): per orally
Text: Female Balb/c (BALB/cAnNTac) mice (6-8 weeks-old) bred in-house were used in this efficacy study in the A20 syngeneic lymphoma model. Animals were marked individually with tail marks and kept in cages that were identified by a cage card showing the study code, date of experimentation, sex and number of animals. During the experiment, the animals were weighed daily. A20 cell line (B-cell lymphoma line derived from a spontaneous reticulum cell neoplasm found in an old BALB/cAnN mouse) was procured from ATCC. When the mean tumor volumes reached approximately 75 mm^3, the animals were randomized based on tumour volumes into four groups of twelve animals in each group. Following randomization into various treatment groups, dosing with vehicle and Compound 6 was initiated. All treatments were administered per orally at a twice daily dosing frequency using a dose of 3 mg/kg, 10 mg/Kg and 30 mg/Kg. The treatment was continued for a period of 21 days after which the overall efficacy and tolerability were evaluated based on tumor volume and body weight changes observed during the treatment period. On treatment day 21, animals from all the treatment groups were sacrificed in sequential order at 1 hour after last dose administration.
Individual animal body weights were recorded daily before the administration of test item throughout the experimental period. […] The tumor volumes were measured in all treatment group animals thrice a week (once every 2-3 days) using a digital Vernier callipers. From an ethical viewpoint, any treatment/control group with a mean tumor weight in excess of 10% of animal body weight were humanely sacrificed. As a measure of efficacy, the % T (treatment)/C(control) and % TGI (% Tumor growth inhibition) values were calculated. Graphs and statistical analysis were performed using GraphPad Prism®, Version 7.0. For analysis of tumor volume data, statistical comparison was done on Day 21 for all groups using One-way ANOVA with Dunnett's multiple comparison test. All analyses and comparisons was evaluated at the 5% (p<0.05) level. A “p” value less than 0.05 was considered as significant.

H929 cells = assay: FACS based phagocytosis assay; assay type: cell-based; conditions: NCI-H929, human macrophages, CFSE stained H929 cells, flow cytometry, normalized to positive control B6H12
Method: (§1) DPBS (Gibco), RPMI 1640 WITH HEPES AND L-GLN-500 ML (Lonza), Recombinant Human M-CSF (R& D systems), CD47 Monoclonal Antibody (B6H12), Functional Grade antibody (Ebioscience), Mouse IgG1 kappa Isotype Control, Functional Grade (Ebioscience), Vacutainer (multiple sample luer adapter) (BD), Vacutainer (sodium heparin (NH) 158USP units, Blood collection tubes (BD), Histopaque (density—1.077 gm/ml) (SIGMA 1077), Trypan Blue solution (SIGMA-T8154), Hemacytometer (Bright line-SIGMA Z359629), Scalp vein infusion set (JMS), Cell Dissociation buffer (Gibco), 48-well sterile flat bottom plates (Corning), Luciferase expressing Raji cells (Generated in house by trasfection of luciferase gene in Raji cells) Luminometer, Hygromycin B (Invitrogen), Bright Glo luciferase assay system (Promega), 96 well plate, polystyrene, high band, white flat bottom wells (Sigma CLS3912), APC anti-mouse/human CD11b Antibody (Biolegend), H929 cells, CFSE (Ebioscience), Fetal Bovine Serum (Gibco Cat #: 10437028), Round-Bottom FACs Tubes (BD), Flowcytometer BD FACS Verse, 96 well plates, ultra-low attachment (Corning).
Monocytes were isolated from blood of healthy donor and cultured for 6-8 days using 10% RPMI (Roswell Park Memorial Institute) media and recombinant human M-CSF to differentiate into macrophages. Media was changed every alternate day. Simultaneously, H929 cells were cultured in 10% RPMI media with 50 μg/mL of betamercaptoethanol in tissue culture flask. On the day of phagocytosis adherent macrophages were serum starved for 2 hours in RPMI media. Simultaneously H929 cells were stained with 0.3 μM CFSE stain. After washing, 0.2 million CFSE stained H929 cells were incubated with anti-human CD47 or Mouse IgG1 K Isotype Control antibody or various conc of test item in serum free media for 30 min at 37° C. After 2 hours of serum starvation macrophages were dissociated with cell dissociation buffer and collected by gentle scraping and added at conc of 0.05 million per well into respective wells of the ultra-low attachment 96 well plate seeded with H929 cells. Phagocytosis was allowed for 2 hours. After 2 hours, cells were washed with PBS and stained with 1 μL of anti-human CD11b-APC antibody prepared in 100 μL of PBS for 30 min in 4° C. in dark. Cells were further washed and fixed in 100 μL of fixation buffer until acquired by Flow cytometry. The extent of phagocytosis of H929 cells by human macrophages was measured by acquiring the samples by Flow cytometry. Samples acquired by Flow cytometry were analysed by using FlowJo software. Each experimental condition was carried out in duplicate. Cells positive for FITC (CFSE) and CD11b-APC were considered as phagocytosed macrophages. Raw data of % phagocytosis by macrophages were obtained in the form of excel sheet from FlowJo. % phagocytosis from isotype control (background phagocytosis) was subtracted from % phagocytosis of macrophages treated with compound as well as other controls to get corrected phagocytosis values. Corrected phagocytosis values of compound treated samples were normalized with phagocytosis of positive control (B6H12) using the formula: % normalized phagocytosis=[(corrected % phagocytosis of compound)/(corrected phagocytosis of B6H12)*100]

[1] = system: luciferase expressing Raji cells; assay: Luciferase based phagocytosis assay; assay type: cell-based; conditions: human monocyte-derived macrophages, luminescence, read-out: % normalized phagocytosis (at 10 μM)
Method: as §1
In vitro phagocytosis assay was performed to evaluate the ability of test item to enhance the phagocytic activity of macrophages. Monocytes were isolated from blood of healthy donor and cultured for 6-8 days using 10% RPMI (Roswell Park Memorial Institute) media and recombinant human M-CSF to differentiate into macrophages. Media was changed every alternate day. After differentiation, adherent macrophages were collected by gentle scraping and cultured in 10% RPMI overnight at a density of 0.1 million per well in 48 well tissue culture plate. Simultaneously, luciferase expressing Raji cells were cultured in 10% RPMI media with 100 μg/mL of hygromycin B in tissue culture flask. On the day of phagocytosis, macrophages were serum starved for 2 hours. 0.4 million luciferase expressing Raji cells per well were incubated with anti human CD47 purified B6H12 or Mouse IgG1 K Isotype Control antibody or various concentrations of test item in serum free media for 30 min at 37° C. and added into respective well of the 48 well plate seeded with macrophages. After 2 hours, cells were washed twice with PBS and 100 μL of serum free RPMI was added to each well. Additionally, 50 μL Bright Glow reagent was added to each well followed by mixing of cells and incubated for 5 min in dark. Luminescence reading was taken using plate reader after transferring the content of each well to white plate. Intensity of luminescence indicated the extent of phagocytosis. Each experimental condition was carried out in duplicate.

NC(=O)CC[C@H](N)c1noc(CNC(=O)N2CCCC2C(=O)O)n1 (stereo partly shown) [Compound 6]
TGI (%) (A20 syngeneic lymphoma; 3 mg/kg (bid), 21 days, Balb/c mice): 53% | TGI (%) (A20 syngeneic lymphoma; 10 mg/kg (bid), 21 days, Balb/c mice): 64% | TGI (%) (A20 syngeneic lymphoma; 30 mg/kg (bid), 21 days, Balb/c mice): 67% | tolerability (body weight, clinical signs of toxicity) (A20 syngeneic lymphoma; 3, 10 and 30 mg/kg bid per orally, 21 days, Balb/c mice): well tolerated without any signs of body weight loss and/or clinical signs of toxicity | antitumor efficacy, significance of tumor growth inhibition (A20 syngeneic lymphoma; all the tested dose levels (3, 10, 30 mg/kg bid), Day 21, one-way ANOVA): statistically significant tumor growth inhibition (TGI) at all the tested dose levels | activation at 10 µM (H929 cells): 74% | activation at 10 µM [1]: 66%
